Laboratory results: patent publication US12686788B2, “Coating compositions having covalently bound ultraviolet absorbers” (BASF SE, priority 2017, dated 2026)

What was measured:
Assay type in all cases: physicochemical
[1] = Percent transmission of clear coats on fused quartz plates (UV-vis); conditions: clear coat, 2.0 mils dry film on fused quartz; 2.5 weight percent UVA actives where present; with HALS 2
Experimental: Example 29. Percent Transmission Data of the Inventive Clear Coats—Clear coats were prepared of Instant Example 23 and were applied to fused quartz plates at a dry film thickness of 2.0 mils. The absorbance at various wavelengths was measured using a UV-vis spectrophotometer and the absorbance readings were converted to percent transmission (% T) at various wavelengths. In formulations where the UV absorber (UVA) was present, the concentration was 2.5 weight percent UVA actives relative to total resin solids

[2] = UV absorber solubility in UV curable coating composition (Example 9); conditions: approximate maximum concentration with no sign of crystallization; coating similar to Pourreau, RadTech Report 2004, Table 6
Experimental: Example 9. UV Absorber Solubility in UV Curable Coating Compositions. To measure this solubility, a number of structurally different UV absorbers were added to a typical UV curable coating composition similar to that as described by D. B. Pourreau “UV-Curable Acrylic Urethane Clearcoats for Automotive Applications,” RadTech Report, November/December, 2004, Table 6, p. 68. The test UV absorber was added to the UV curable coating composition at various concentrations. The resulting solution was placed into individual containers and sealed. Solubility was then evaluated based upon observed crystallization in the solvent. Observations were initiated after several hours and continued over a period of several weeks.
The solubility values given in Table 2, below, are approximate maximum concentrations where no sign of subsequent crystallization is evident. Solubilities are reported in weight percent of total UV absorber added to UV curable coating formulation. From the data, it is clear that the instant triazine UV absorbers are considerably more soluble in UV curable coating formulations compared to other, triazine UV absorbers. The use of many UV absorbers in coatings has been limited in the past by the limited solubility and compatibility of some UV absorber compounds.

[3] = Multilayered coated panels, accelerated weathering: color change (ΔE); conditions: after 6000 hours Xenon Arc accelerated weathering (SAE J2527); UV absorber 2.5 wt % in 2-part polyurethane clear top coat on white base coat
Experimental: (§1) Example 10. Stabilized 2-Part Solvent-borne Polyurethane Glossy Clear Top Coat. A glossy stabilized clear top coat was prepared of the formulation below. The UV absorbers were added to the formulation at 2.5 wt % relative to total resin solids.
(§2) Example 11. Stabilized 2-Part Solvent-borne Polyurethane Glossy Clear Top Coat. A glossy stabilized clear top coat was prepared of the formulation below. The UV absorber was added at 2.5 wt % relative to total resin solids, and the hindered amine light stabilizer (HALS) was added at 1.5 wt % relative to total resin solids. The HALS was a mixture of bis (1,2,2,6,6-pentamethyl-4-piperidyl) sebacate and methyl-1,2,2,6,6-pentamethyl-4-piperidyl sebacate (“HALS 1”); bis(1-octyloxy-2,2,6,6-tetramethylpiperidin-4-yl) sebacate (“HALS 2”); or 2,4-bis[(1-cyclohexyloxy-2,2,6,6-tetramethylpiperidin-4-yl)butylamino]-6-(2-hydroxyethylamino-s-triazine (“HALS 3”).
Example 12. Multilayered Coated Panel Preparation. Aluminum test panels from ACT Test Panels LLC were purchased having a white base coat (coil coat) and no clear top coat. The panels were cut to a size of about 3 inches by 6 inches. The stabilized top coats of Examples 10 and 11 were applied to the painted test panels using draw down bars to obtain clear coat thicknesses of either 2 mils or 3 mils, wherein 1 mil is equal to 0.0254 mm or 25.4 microns. The panels were allowed to air dry for 2 days followed by oven curing at 60° C. for 60 minutes. Initial CIE Lab color values, 20 degree gloss, and 60 degree gloss were measured.
Example 14. Multilayered Coated Panels, Accelerated Weathering. […]
Initial color measurements were taken using the above parameters. The L, a, and b values were calculated using the CIE system from the reflectance values. ΔE was calculated from the L, a, and b values. Subsequent measurements were taken at specified intervals. ΔL, a, and b values were the difference between the initial values and the values at each interval. ΔE was calculated as follows: [(ΔL)^2+(Δa)^2+(Δb)^2][…]=ΔE. […]

[4] = UV absorber solubility in UV curable coating composition (Example 8); conditions: approximate maximum concentration with no sign of crystallization; coating similar to Pourreau, RadTech Report 2004, Table 5
Experimental: Example 8. UV Absorber Solubility in UV Curable Coating Compositions. To measure this solubility, a number of structurally different UV absorbers were added to a typical UV curable coating composition similar to that as described by D. B. Pourreau “UV-Curable Acrylic Urethane Clearcoats for Automotive Applications,” RadTech Report, November/December, 2004, Table 5, p. 66. The test UV absorber was added to the UV curable coating composition at various concentrations. The resulting solution was placed into individual containers and sealed. Solubility was then evaluated based upon observed crystallization in the solvent. Observations started after several hours and then continued over a period of several weeks.
The solubility values given in Table 1, below, are approximate maximum concentrations where no sign of subsequent crystallization was evident. Solubilities are reported in weight percent of total UV absorber added to UV curable coating formulation. From the data in Table 1, it is clear that the inventive triazine UV absorbers are considerably more soluble in UV curable coating formulations than other triazine UV absorbers of the prior art. The use of many UV absorbers in coatings has been limited by solubility and compatibility of some UV absorber compounds. […]

[5] = Multilayered coated panels, accelerated weathering: 20 degree gloss retention; conditions: after 3536 hours Xenon Arc accelerated weathering (SAE J2527); UV absorber 2.5 wt % in 2-part polyurethane clear top coat on white base coat
Experimental: as §1, §2
Example 12. Multilayered Coated Panel Preparation. Aluminum test panels from ACT Test Panels LLC were purchased having a white base coat (coil coat) and no clear top coat. The panels were cut to a size of about 3 inches by 6 inches. […] Initial CIE Lab color values, 20 degree gloss, and 60 degree gloss were measured. […]

Row | Molecule | % T at 325 nm [1] [%] | % T at 350 nm [1] [%] | % T at 375 nm [1] [%] | Solubility in UV Curable Coating [2] [wt %] | Delta E [3] | Solubility in UV Curable Coating [4] [wt %] | 20 degree gloss retention [5] [%]
1 | CC(C)(C)CCCCCC(=O)OCC(COc1ccc(-c2nc(-c3ccc(-c4ccccc4)cc3)nc(-c3ccc(-c4ccccc4)cc3)n2)c(O)c1)OC(=O)NCCCCCCNC(=O)N(CCCCCCN=C=O)C(=O)NCCCCCCNC(=O)OC(COC(=O)CCCCCC(C)(C)C)COc1ccc(-c2nc(-c3ccc(-c4ccccc4)cc3)nc(-c3ccc(-c4ccccc4)cc3)n2)c(O)c1 (centres unmarked) [Example 17, [3-[4-[4,6-bis(4-phenylphenyl)-1,3,5-triazin-2-yl]-3-hydroxy-phenoxy]-2-[6-[[6-[[1-[[4-[4,6-bis(4-phenylphenyl)-1,3,5-triazin-2-yl]-3-hydroxy-phenoxy]methyl]-2-(neodecanoyl)oxy-ethoxy]carbonylamino]hexylcarbamoyl-(6-isocyanatohexyl)-carbamoyl]amino]hexylcarbamoyloxy]propyl] neodecanoate] | 0.02 | 0.09 | 25.29 | – | – | – | –
2 | 2-[4,6-bis(2,4-dimethylphenyl)-1,3,5-triazin-2-yl]-5-[2-hydroxy-3-(2-methylbutoxy)propoxy]phenol and regioisomer [Example 3, reference compound] | 0.04 | 0.10 | 36.79 | – | – | – | –
3 | CCCCCCCCON1C(C)(C)CC(OC(=O)CCCCCCCCC(=O)OC2CC(C)(C)N(OCCCCCCCC)C(C)(C)C2)CC1(C)C [HALS 2, bis(1-octyloxy-2,2,6,6-tetramethylpiperidin-4-yl) sebacate, reference compound] | 84.39 | 92.31 | 93.38 | – | – | – | –
4 | CCCCC(CC)COc1ccc(-c2nc(-c3ccc(-c4ccccc4)cc3)nc(-c3ccc(-c4ccccc4)cc3)n2)c(O)c1 (centres unmarked) [Example 5, 2-[4,6-Bis(4-phenylphenyl)-1,3,5-triazin-2-yl]-5-(2-ethylhexoxy)phenol, reference compound] | – | – | – | ~2.4 | 2.79 | – | –
5 | CC(C)(C)CCCCCC(=O)OCC(COc1ccc(-c2nc(-c3ccc(-c4ccccc4)cc3)nc(-c3ccc(-c4ccccc4)cc3)n2)c(O)c1)OC(=O)NCCCCCNC(=O)N(CCCCCCN=C=O)C(=O)NCCCCCCN=C=O (centres unmarked) [Example 16, [3-[4-[4,6-bis(4-phenylphenyl)-1,3,5-triazin-2-yl]-3-hydroxy-phenoxy]-2-[5-[[6-isocyanatohexyl(6-isocyanatohexylcarbamoyl)carbamoyl]amino]pentyl-carbamoyloxy]propyl] neodecanoate] | 0.03 | 0.11 | 33.86 | – | – | – | –
6 | [3-[4-[4,6-bis(4-phenylphenyl)-1,3,5-triazin-2-yl]-3-hydroxy-phenoxy]-2-hydroxy-propyl] neo-decanoate (“UVA-3”) and [2-[4-[4,6-bis(4-phenylphenyl)-1,3,5-triazin-2-yl]-3-hydroxy-phenoxy]-3-hydroxy-propyl] neo-decanoate (“UVA-4”) [Example 2] | – | – | – | ~26 | 1.89 | ~6.4 | –
7 | CC(C)CCCC(C)OC(=O)C(C)Oc1ccc(-c2nc(-c3ccc(-c4ccccc4)cc3)nc(-c3ccc(-c4ccccc4)cc3)n2)c(O)c1 (centres unmarked) [Example 4, 2-Isooctyl 2-[4-[4,6-bis(4-phenylphenyl)-1,3,5-triazin-2-yl]-3-hydroxy-phenoxy]propanoate] | – | – | – | – | 3.78 | ~0 | 78.8
8 | CCCCCC(CC)OC(=O)N(CCCCCCN=C=O)C(=O)NCCCCCCNC(=O)OC(COC(=O)CCCCCC(C)(C)C)COc1ccc(-c2nc(-c3ccc(-c4ccccc4)cc3)nc(-c3ccc(-c4ccccc4)cc3)n2)c(O)c1 (centres unmarked) [Example 19, [3-[4-[4,6-bis(4-phenylphenyl)-1,3,5-triazin-2-yl]-3-hydroxy-phenoxy]-2-[6-[[1-ethylhexoxycarbonyl(6-isocyanatohexyl)carbamoyl]amino]hexylcarbamoyloxy]propyl] neodecanoate] | 0.02 | 0.10 | 27.18 | – | – | – | –
9 | CC(C)(C)CCCCCC(=O)OCC(COc1ccc(-c2nc(-c3ccc(-c4ccccc4)cc3)nc(-c3ccc(-c4ccccc4)cc3)n2)c(O)c1)OC(=O)NCCCCCCn1c(=O)n(CCCCCCN=C=O)c(=O)n(CCCCCCN=C=O)c1=O (centres unmarked) [Example 18, [2-[6-[3,5-bis(6-isocyanatohexyl)-2,4,6-trioxo-1,3,5-triazinan-1-yl]hexylcarbamoyloxy]-3-[4-[4,6-bis(4-phenylphenyl)-1,3,5-triazin-2-yl]-3-hydroxy-phenoxy]propyl] neodecanoate] | 0.02 | 0.13 | 31.98 | – | – | – | –
